Results as given in ChEMBL document CHEMBL1201862, “PubChem BioAssay data set” (2004).
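Five compound concentrations were applied to cells in 96-well plates for 48 hours; endpoints were derived by simple linear interpolation of the resulting dose-response curve. The concentration for 50% growth inhibition is given as GI50.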 Calls of active or inactive are those of the source. Cut-off read from the data, not from the text of the source: active = GI50 up to about 1.1 µM and inactive = higher.

How the values were obtained:
Experiment in all cases: NCI anticancer screen, dose series, 48 h
[1] = system: A498
[2] = system: CAKI-1
[3] = system: CCRF-CEM
[4] = system: DU-145
[5] = system: HL-60
[6] = system: HT-29
[7] = system: LOX IMVI
[8] = system: MDA-MB-435
[9] = system: MDA-N
[10] = system: MOLT-4
[11] = system: NCI-H23
[12] = system: NCI-H522
[13] = system: NCI/ADR-RES
[14] = system: OVCAR-5
[15] = system: OVCAR-8
[16] = system: SK-MEL-5
[17] = system: SNB-19
[18] = system: UACC-257
[19] = system: SK-MEL-2
[20] = system: MDA-MB-231

SMILES | GI50 [1] | GI50 [2] | GI50 [3] | GI50 [4] | GI50 [5] | GI50 [6] | GI50 [7] | GI50 [8] | GI50 [9] | GI50 [10] | GI50 [11] | GI50 [12] | GI50 [13] | GI50 [14] | GI50 [15] | GI50 [16] | GI50 [17] | GI50 [18] | GI50 [19] | GI50 [20]
OC1(C(Sc2cc(C(F)(F)F)cc(C(F)(F)F)c2)Sc2cc(C(F)(F)F)cc(C(F)(F)F)c2)C=CCCC1 (configuration not stated) | 1.35 µM (inactive) | 1.79 µM (inactive) | 1.61 µM (inactive) | 2.53 µM (inactive) | 1.38 µM (inactive) | 1.08 µM (active) | 1.66 µM (inactive) | 1.86 µM (inactive) | 2.56 µM (inactive) | 1.65 µM (inactive) | 2.58 µM (inactive) | 1.74 µM (inactive) | 2.93 µM (inactive) | 0.847 µM (active) | 2.12 µM (inactive) | 9.53 µM (inactive) | 2.49 µM (inactive) | 1.2 µM (inactive) |  | 
O=C(Nc1ccc(Cl)cc1)Oc1ccc(C(=S)Nc2ccc(Br)cc2)cc1 | 19.1 µM (inactive) | 7.78 µM (inactive) | 3.04 µM (inactive) | 25.8 µM (inactive) | 1.61 µM (inactive) | 2.19 µM (inactive) | 0.334 µM (active) | 12.4 µM (inactive) | 16.7 µM (inactive) | 4.44 µM (inactive) | 27.7 µM (inactive) | 10.4 µM (inactive) | 9.53 µM (inactive) | 4.05 µM (inactive) | 6.01 µM (inactive) | 6.1 µM (inactive) | 34.4 µM (inactive) | 15.5 µM (inactive) | 6.62 µM (inactive) | 
CCN1CCN(c2nc3ccccc3nc2C(=O)c2ccc(OC)cc2)CC1 | 37.1 µM (inactive) | 39.8 µM (inactive) |  | > 100 µM (inactive) | > 100 µM (inactive) | 23.9 µM (inactive) | 24.8 µM (inactive) | 44.3 µM (inactive) | 32.1 µM (inactive) | 28.8 µM (inactive) | 27 µM (inactive) | 53.6 µM (inactive) | 45.1 µM (inactive) | 56.8 µM (inactive) | 60.7 µM (inactive) | 37.2 µM (inactive) | 90.2 µM (inactive) | 16.5 µM (inactive) | 41 µM (inactive) | 
N#Cc1c(-c2ccc(Cl)cc2)c(C#N)c(=O)n(NS(=O)(=O)c2ccccc2)c1-c1ccccc1 | > 25 µM (inactive) | > 25 µM (inactive) | > 25 µM (inactive) |  | > 25 µM (inactive) |  | > 25 µM (inactive) | > 25 µM (inactive) | > 25 µM (inactive) | > 25 µM (inactive) |  |  |  | > 25 µM (inactive) |  | > 25 µM (inactive) | > 25 µM (inactive) | > 25 µM (inactive) | > 25 µM (inactive) | > 25 µM (inactive)
COc1ccc(/C=C2\OC(=O)C(Cl)=C2c2ccc(OC)c(Cl)c2)cc1 | 17.7 µM (inactive) | 21.9 µM (inactive) | 29.2 µM (inactive) | 36.3 µM (inactive) | 47.1 µM (inactive) | 43.2 µM (inactive) | 32.1 µM (inactive) | 23.8 µM (inactive) | 17.7 µM (inactive) | 48.9 µM (inactive) | 20 µM (inactive) | 25.3 µM (inactive) | 21.4 µM (inactive) | 24.6 µM (inactive) | 21.1 µM (inactive) | 17.3 µM (inactive) | 34.1 µM (inactive) | 34.7 µM (inactive) | 49.8 µM (inactive) | 
N#C[C@](CO)(NC(=O)OCc1ccccc1)C(F)F | > 100 µM (inactive) | > 100 µM (inactive) | > 100 µM (inactive) | > 100 µM (inactive) | > 100 µM (inactive) | > 100 µM (inactive) | > 100 µM (inactive) | > 100 µM (inactive) |  | > 100 µM (inactive) | > 100 µM (inactive) | > 100 µM (inactive) | > 100 µM (inactive) | > 100 µM (inactive) | > 100 µM (inactive) | > 100 µM (inactive) | > 100 µM (inactive) | > 100 µM (inactive) | > 100 µM (inactive) | > 100 µM (inactive)
